Values joined by “and” are separate entries in the source; they are usually repeats but may differ in a detail not shown here. Equal entries are not always repeated.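 Five concentrations, 48 hours, 96-well plates. GI50 is the concentration that inhibits growth by half. Definition used: TGI = concentration required for complete inhibition of growth.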
What was measured:
Assay in all cases: DTP human tumour cell line panel, 48 h
NCI-H23 lung = test system: NCI-H23 lung
HOP-92 NSCLC = test system: HOP-92 NSCLC
RPMI-8226 leukemia = test system: RPMI-8226 leukemia
UO-31 renal = test system: UO-31 renal
OVCAR-5 ovarian = test system: OVCAR-5 ovarian
786-0 renal = test system: 786-0 renal
UACC-257 melanoma = test system: UACC-257 melanoma
NCI-H226 lung = test system: NCI-H226 lung
HL-60(TB) leukemia = test system: HL-60(TB) leukemia
U251 CNS = test system: U251 CNS

SMILES | GI50 (NCI-H23 lung) | TGI (NCI-H23 lung) | TGI (HOP-92 NSCLC) | GI50 (RPMI-8226 leukemia) | TGI (RPMI-8226 leukemia) | GI50 (UO-31 renal) | TGI (UO-31 renal) | TGI (OVCAR-5 ovarian) | TGI (786-0 renal) | GI50 (UACC-257 melanoma) | TGI (UACC-257 melanoma) | GI50 (NCI-H226 lung) | TGI (HL-60(TB) leukemia) | TGI (U251 CNS) | TGI (NCI-H226 lung) | GI50 (HL-60(TB) leukemia) | GI50 (OVCAR-5 ovarian) | GI50 (HOP-92 NSCLC)
CCCCCCCCCC[C@@H](O)[C@H]1CC[C@@H]([C@H]2CC[C@H]([C@H](O)CCCCCCCCCC[C@@H]3CC(CC(C)=O)C(=O)O3)O2)O1 (stereo not given in full) | 0.754 µM | > 100 µM | 63.4 µM | 5.03 µM | 26.2 µM | 15.2 µM | 34.6 µM | > 100 µM | > 100 µM | 3.23 µM | 66.3 µM | 19.6 µM | – | – | – | – | – | –
Cc1cccc(-c2cc(=O)c3c(C)ccnc3[nH]2)c1 | – | > 100 µM | – | – | 26.1 µM | – | – | > 100 µM | > 100 µM | – | – | – | 0.703 µM | > 100 µM | > 100 µM | – | – | –
Fc1ccccc1C1SCC2=Nc3ccccc3CN21 (stereo not given) | – | > 100 µM | > 100 µM | – | > 100 µM | – | > 100 µM | > 100 µM | > 100 µM | – | > 100 µM | – | > 100 µM | > 100 µM | – | – | – | –
O=C1/C(=C/c2ccc(Cl)c(Cl)c2)CN(C(=O)CCN2CCOCC2)C/C1=C\c1ccc(Cl)c(Cl)c1 | – | – | – | – | – | – | – | – | – | – | – | – | 1.1 µM and 0.632 µM | – | 4.55 µM and 4.15 µM | 0.362 µM and 0.277 µM | – | –
COc1cccc2c1C(=O)c1c(O)c3c(c(O)c1C2=O)C[C@](O)(C(=O)CO)CC3OC1CC(N)C(OC2CCCCO2)C(C)O1 (stereo not given in full) | – | 1.97 µM | 1.02 µM | – | 5.12 µM | – | 3.63 µM | 2.17 µM | – | – | 2.5 µM | – | 0.294 µM | 0.899 µM | 0.434 µM | – | – | –
CC(=O)Oc1ccc(-c2c(OC(C)=O)c(OC(C)=O)c(-c3ccc(OC(C)=O)c(OC(C)=O)c3)c(OC(C)=O)c2OC(C)=O)cc1 | – | 38 µM | – | – | 35.4 µM | – | 28.8 µM | 25 µM | 30.6 µM | – | 29.1 µM | – | 43.7 µM | 36.5 µM | 35.5 µM | – | – | –
CC(C)=CCC/C(C)=C/CCC1(C)C2COC(=O)C21 (stereo not given) | – | > 100 µM | 87 µM | – | – | – | > 100 µM | > 100 µM | > 100 µM | – | > 100 µM | – | 46.4 µM | > 100 µM | > 100 µM | – | – | –
CCCNC(=O)Cn1c(-c2ccccc2)cc2ccccc21 | – | > 100 µM | – | – | > 100 µM | – | > 100 µM | > 100 µM | > 100 µM | – | > 100 µM | – | > 100 µM | > 100 µM | > 100 µM | – | – | –
OCC(CO)CC1COc2ccccc2O1 (stereo not given) | – | > 10 µM | – | – | > 10 µM | – | > 10 µM | > 10 µM | – | – | – | – | > 10 µM | > 10 µM | > 10 µM | – | – | –
Cc1ccc(Oc2cc(C)ccc2P(=O)(O)O)cc1 | – | > 100 µM | > 100 µM | – | > 100 µM | – | > 100 µM | – | > 100 µM | – | > 100 µM | – | > 100 µM | – | > 100 µM | – | – | –
c1csc(-c2csc(-c3cccs3)c2)c1 | – | 63.1 µM | 69.8 µM | – | 57.1 µM | – | > 100 µM | > 100 µM | > 100 µM | – | > 100 µM | – | > 100 µM | > 100 µM | – | – | – | –
CCOC(=O)Cn1c(C)nc2nn(Cc3ccccc3)cc2c1=O | – | > 100 µM | > 100 µM | – | – | – | > 100 µM | > 100 µM | > 100 µM | – | – | – | – | > 100 µM | > 100 µM | – | – | –
O=C(O)C1(Cc2ccc3c(c2)CCC3)Cc2cc3c(cc2C1)CCC3 | – | – | > 100 µM | – | > 100 µM | – | > 100 µM | > 100 µM | > 100 µM | – | – | – | > 100 µM | > 100 µM | > 100 µM | – | – | –
CCn1c2ccccc2c2cc(NC(=O)c3c(C)[nH]c(=O)[nH]c3=S)ccc21 | – | > 100 µM | > 100 µM | – | > 100 µM | – | > 100 µM | 68.2 µM | – | – | > 100 µM | – | > 100 µM | > 100 µM | > 100 µM | – | – | –
CC1=C(C(=O)OC(C)C)C(c2cccc([N+](=O)[O-])c2)C(C(=O)OC(CO[N+](=O)[O-])CO[N+](=O)[O-])=C(C)N1 (stereo not given) | – | > 100 µM | 7.38 µM | – | 3.6 µM | – | > 50.1 µM | 21.5 µM | > 100 µM | – | 13.3 µM | – | – | 6.97 µM | 30.6 µM | – | – | –
Brc1ccc2[nH]cc(-c3nc(-c4c[nH]c5ccncc45)cs3)c2c1 | 1.64 µM | 3.17 µM | – | 2.48 µM | 5.23 µM | 1.47 µM | 2.8 µM | 3.21 µM | – | 1.92 µM | 3.46 µM | – | – | – | – | – | 1.79 µM | –
O=C(O)c1cc2c(cc1CC(Cc1ccccc1)C(=O)O)CCC2 (stereo not given) | – | > 100 µM | – | – | > 100 µM | – | > 100 µM | > 100 µM | > 100 µM | – | > 100 µM | – | > 100 µM | > 100 µM | > 100 µM | – | – | –
COc1ccc(/C(Cl)=C(\C=O)c2ccc(Cl)cc2)cc1 | – | 17.1 µM | – | – | – | – | 33.1 µM | > 100 µM | – | – | 77.4 µM | – | 16.6 µM | 17.7 µM | 48.1 µM | – | – | –
Cc1cc2nnn(C3CCCO3)c2cc1C (stereo not given) | – | > 100 µM | – | – | – | – | – | > 100 µM | > 100 µM | – | > 100 µM | – | > 100 µM | > 100 µM | > 100 µM | – | – | –
CCCCC[C@@H]1OC(=O)[C@@]2(CC3c4ccccc4C2c2ccccc23)[C@H]1C(=O)OC | – | > 100 µM | > 100 µM | – | 54.3 µM | – | > 100 µM | > 100 µM | > 100 µM | – | 86.4 µM | – | 33.1 µM | > 100 µM | – | – | – | –
Oc1cc(Br)cc2cc(Br)cnc12 | – | 46.1 µM | 83.8 µM | – | 30.2 µM | – | 29.4 µM | – | 71.1 µM | – | > 100 µM | – | 0.654 µM | – | 86.5 µM | – | – | –
Nc1ncnc2c(C3OC(CO)C(O)C3O)c[nH]c12 (stereo not given) | < 0.0104 µM | 0.0792 µM and 0.0756 µM | 0.00836 µM and 0.0664 µM | – | – | – | 0.118 µM and 0.258 µM | 0.657 µM and 0.675 µM | 16.4 µM | < 0.0155 µM | 0.276 µM and 0.382 µM | 0.0189 µM | – | – | 0.271 µM and 0.159 µM | 0.000721 µM | < 0.0119 µM | 0.00215 µM
C=CC(=O)N1C/C(=C\c2ccc(F)cc2)C(=O)/C(=C/c2ccc(F)cc2)C1 | – | 3.32 µM | 8.62 µM | – | – | – | 2.17 µM | 2.7 µM | 0.346 µM | – | 6.05 µM | – | > 100 µM | 2.28 µM | 8.78 µM | – | – | –
COc1cc2c(cc1OCc1ccccc1)NC(=O)[C@@H]1C[C@@H](O)CN1C2=O | – | > 100 µM | > 100 µM | – | > 100 µM | – | > 100 µM | > 100 µM | > 100 µM | – | > 100 µM | – | – | > 100 µM | > 100 µM | – | – | –
